Measurements from patent US10596259B2, “Tumor radiosensitization with monomethyl auristatin E (MMAE) and derivatives thereof” (The Regents of the University of California, priority 2015, dated 2020).
Values joined by “and” are separate entries in the source; they are usually repeats but may differ in a detail not shown here. Equal entries are not always repeated. “Also recorded” adds a separate entry of the source. Where two headings read alike, the source gives them in different places. Non-standard residues stand in square brackets, D forms with d. Residues, ends and D or L forms follow the SMILES beside them. *: point of attachment. Dolaproine = CO[C@@H]([C@@H]1CCCN1)[C@@H](C)C(=O)O; Dil = CC[C@H](C)[C@H](NC)[C@@H](CC(=O)O)OC; X1 = C[C@@H](N*)[C@@H](O)c1ccccc1; NMeV = CN[C@H](C(=O)O)C(C)C

Assays:
PANC-1 tumor xenografts = test: In vivo tumor xenograft growth with or without IR; parameters: species or system mice
Procedure: HCT-116 or PANC-1 tumor xenografts were established and tumor growth was measured with digital calipers. Tumor volume was calculated using the formula as ½*Length*Width^2. Mice were randomized into groups once the average tumor volume reached 250 mm^3. Mice were assigned to groups: Vehicle, ACPP-cRGD-MMAE, fractionated IR or the combination. ACPP-cRGD-MMAE lyophilized powder was suspended in sterile deionized water just prior to tail vein injection. MMAE doses and IR fractionation are as indicated in the Results.
HCT-116 or PANC-1 tumor growth was measured with digital calipers. Tumor volume was calculated using the formula as ½×length×width^2. Mice were randomized into groups as indicated in Results once the average tumor volume reached >200 mm^3. Free MMAE was injected on an equimolar basis to ACPP-cRGD-MMAE.

CAL-27 tumor xenografts = test: In vivo tumor xenograft growth with or without IR; parameters: species or system mice; settings: day 0 iv: 0.5 nmoles antibody or 2 nmoles free MMAE; no IR
Procedure: CAL-27 tumor xenografts were established and tumor growth was measured with digital calipers. Tumor volume was calculated using the formula as ½*Length*Width^2. Mice were randomized into groups once the average tumor volume reached >150 mm^3. Mice were assigned to indicated groups in the Results. […] Free MMAE was injected on an equimolar basis to ACPP-cRGD-MMAE in final volume of 3% DMSO. MMAE doses and IR fractionation are as indicated in the Results.

779E cells [1] = test: Alamar Blue cell viability assay; type: cell-based, Human
Procedure: (§1) Cells were plated in 96 well plates at varying cell densities and exposed to range of concentrations of MMAE or paclitaxel for 72 hrs. Alamar Blue (also known as resazurin) was added to the cells and allowed to incubate for 2 hrs at 37° C. Plates were analyzed using a plate reader with fluorescence measured at 560 nm. For irradiated cells, cells were treated with MMAE overnight followed by 6 Gy.
(§2) Cells were plated in 96-well plates and exposed to MMAE or paclitaxel for 72 hours and analyzed at 560 nm. For irradiated cells, cells were treated with MMAE overnight followed by 6 Gy.

PANC-1 cells = test: Alamar Blue cell viability assay; type: cell-based, Human
Procedure: as §1, §2

HCT-116 cells = test: Neutral comet assay (DNA double strand breaks); type: cell-based, Human
Procedure: (§3) Cells were treated for 24 hours with indicated doses of MMAE and then irradiated with 6 Gy. Cells were harvested 15 minutes post IR, suspended in agarose gel and lysed per assay directions (Trevigen). Samples underwent electrophoresis under neutral conditions and were then stained with Sybr Green. Comet tails were counted in multiple fields (>60 cells per sample) and analyzed using CometScore (TriTek Corp).
(§4) Cells were treated for indicated length and doses of MMAE followed by 6 Gy. Cells were harvested 15 minutes after IR and underwent neutral electrophoresis (Trevigen). Comet tails were counted in multiple fields (>60 cells per sample) and analyzed using CometScore (TriTek Corp).

779E cells [2] = test: Neutral comet assay (DNA double strand breaks); type: cell-based, Human; settings: MMAE overnight in combination with IR
Procedure: as §3, §4

CC[C@H](C)[C@@H]([C@@H](CC(=O)N1CCC[C@H]1[C@H](OC)[C@@H](C)C(=O)N[C@H](C)[C@@H](O)c1ccccc1)OC)N(C)C(=O)[C@@H](NC(=O)[C@@H](NC)C(C)C)C(C)C [MMAE, monomethyl auristatin E] (H-[NMeV]V[Dil][Dolaproine]-X1)
V(end)/V(0) ≤ 1, PANC-1, expt 1 (PANC-1 tumor xenografts; day 30, + IR): 0% | V(end)/V(0) ≤ 1, PANC-1, expt 1 (PANC-1 tumor xenografts; day 30, no IR): 0% | tumor xenografts smaller than starting tumor volume (PANC-1 tumor xenografts; expt 1, day 20, no IR): None | tumor xenografts less than or equal to starting tumor volume (PANC-1 tumor xenografts; expt 1, day 20, with IR): 4/10 | tumor regression vs IR or free MMAE alone (PANC-1 tumor xenografts; expt 1: 6 nmoles days 0 and 1 plus IR 3 Gy days 1 and 2, listed as free MMAE): increased tumor xenograft regression; also recorded: profound tumor xenograft regression | average tumor volume relative to untreated controls (PANC-1 tumor xenografts; expt 1: iv days 0 and 1, 6 nmoles/day, no IR, day 30): 75% | tumor growth vs untreated control (PANC-1 tumor xenografts; expt 1: iv days 0 and 1, 6 nmoles/day, no IR, listed as free MMAE): modest, but statistically significant growth delay; also recorded: small but statistically significant growth delay | tumor growth, non-irradiated tumors (CAL-27 tumor xenografts): delayed tumor growth | IC50 (779E cells [1]; 72 hours exposure): 5.61 nM | IC50 (779E cells [1]; 72 hours exposure (Example 3)): 5.6 nM | IC50 (PANC-1 cells; 72 hours exposure (Example 3), read-out: IC50): 0.6 nM | IC50 (PANC-1 cells; 72 hours exposure, read-out: IC50): 0.6 nM | IC50 (PANC-1 cells; IR 6 Gy combined with MMAE (Example 3), read-out: IC50 for MMAE): 0.4 nM | IC50 (PANC-1 cells; MMAE alone, no IR, continuous exposure, viability at 72 hours, read-out: IC50 for MMAE): 0.81 nM | IC50 (PANC-1 cells; MMAE overnight then 6 Gy IR, continuous exposure, viability at 72 hours, read-out: IC50 for MMAE): 0.35 nM | relative reduction in the IC50 of MMAE (PANC-1 cells; MMAE with 6 Gy IR vs MMAE alone): > 50% and ~50% | IC50 (PANC-1 cells; non-irradiated (Example 3), read-out: IC50 for MMAE): 0.8 nM | comet tail length vs IR alone (HCT-116 cells; 1 nM MMAE 24 hours, then 6 Gy): did not significantly increase; also recorded: did not increase DNA damage over IR alone | comet tail length vs IR alone (HCT-116 cells; 5 nM MMAE 24 hours, then 6 Gy): significant increase; also recorded: significantly increased comet tail length | comet tail length vs IR alone (HCT-116 cells; 5 nmol/L MMAE for 2 or 4 hours, then IR): did not increase comet tail length | comet tail length vs vehicle (HCT-116 cells; non-irradiated, 1 or 5 nM MMAE overnight): no significant effect | comet tail length (779E cells [2]): significantly increased comet tail length
